Data on three compounds can be found in patent US9132109B2, “Use of non-steroidal anti-inflammatory drugs by inhalation in the treatment of acute and chronic bronchitis” (MEDESTEA RESEARCH & PRODUCTION S.P.A., priority 2005, dated 2015).

SMILES strings stand for the structures. Like-named read-outs stand apart in the source and are kept apart here.

Test [1] has as its system bronchitic patients. As to the kind of experiment: Pulmonary function and pro-inflammatory parameters in bronchitic patients after nebulised drug. The test is classed as in vivo, human. The note with it: aspirin by nebuliser.
Experimental: The study involved 4 patients with a diagnosis of COPD according to the ATS/ERS guidelines (B R Celli et al. Eur. Respir. J. 2004; 23: 932-46), who were smokers or former smokers (≧20 packets a year). The patients were instructed in the use of a peak expiratory flow (PEF) measuring device using a peak flowmeter, and asked to record the PEF measurements in a daily diary. The measurements were performed 3 times a day: immediately after getting up in the morning, before lunch, and at night before going to bed. […] The patients were suitably instructed as to how to perform the PEF measurements, and asked to record the various measurements and any symptoms, whether correlated with the disease or not, in a daily diary. Before beginning treatment with 900 mg lysine acetylsalicylate (equivalent to 500 mg of acetylsalicylic acid) twice a day, morning and evening, administered after measurement of the corresponding PEF, the patients discontinued all pharmacological treatment except for short-acting bronchodilators in accordance with the ATS/ERS guidelines (B R Celli et al. Eur. Respir. J. 2004; 932-46) as first-line of treatment. This basic treatment was continued for 15 days, during which the PEF values were recorded; their mean value was considered as the baseline value. […]
The subject of test [2] is asthma patients. The note with it: by inhalation, Sestini P. et al. 1999; cited from earlier work.
The test system of test [3] is bronchitic patients. As to conditions: cited from earlier work.
Test [4] deals with patients with a diagnosis of COPD. As to the kind of experiment: Peak expiratory flow (PEF) in COPD patients treated by inhalation. The test is classed as in vivo, human. As to conditions: 900 mg lysine acetylsalicylate (equivalent to 500 mg acetylsalicylic acid) twice a day by inhalation, 30 days, vs 15-day baseline; two patients; similar at all 3 daily measurements. As to the method:
The study involved 4 patients with a diagnosis of COPD according to the ATS/ERS guidelines (B R Celli et al. Eur. Respir. J. 2004; 23: 932-46), who were smokers or former smokers (≧20 packets a year). The patients were instructed in the use of a peak expiratory flow (PEF) measuring device using a peak flowmeter, and asked to record the PEF measurements in a daily diary. The measurements were performed 3 times a day: immediately after getting up in the morning, before lunch, and at night before going to bed. At least 3 daily PEF measurements are considered a good method for the measurement of pulmonary function (C A. Holcroft et al., Chest, 2003; 124: 501-10). PEF measurement has also been used, together with other spirometric tests, to evaluate potential COPD drugs (N A. Hanania et al., Chest, 2003; 124: 834-43). The patients were suitably instructed as to how to perform the PEF measurements, and asked to record the various measurements and any symptoms, whether correlated with the disease or not, in a daily diary. […] This basic treatment was continued for 15 days, during which the PEF values were recorded; their mean value was considered as the baseline value. […]

The subject of test [5] is bronchitic patients. The note with it: indomethacin inhaler; Tamaoki et al.; cited from earlier work.

As for `CC(=O)Oc1ccccc1C(=O)O` [aspirin, acetylsalicylic acid], in test [1], the pulmonary function result was “definite improvement” and the pulmonary pro-inflammatory parameters result is given as “reduction”. Moreover, in test [2], the immediate allergen-induced bronchoconstriction entry is recorded as “inhibited”. For the same compound, the sputum volume result in test [3] (aspirin by inhalation, Inoue H et al. 1991) is on record as “reduces the sputum volume”.
As to `CC(=O)Oc1ccccc1C(=O)O` [lysine acetylsalicylate], the “mean increase in PEF” value in test [4] was in the range of 8 to 10 L/min.
Consider `COc1ccc2c(c1)c(CC(=O)O)c(C)n2C(=O)c1ccc(Cl)cc1` [indomethacin], for which the “variation in respiratory function (FEV1)” value in test [5] was “did not observe any significant variation”. Further, the immediate allergen-induced bronchoconstriction entry in test [2] is recorded as “ineffective”. For the same compound, the sputum volume result in test [3] (indomethacin inhaler, Tamaoki J. et al. 1992) was “reduction in sputum volume”.
